Source: patent publication US8476255B2, “Histone deacetylase inhibitors” (Orchid Chemicals & Pharmaceuticals Limited, priority 2007, dated 2013)

Legend:
[1] = tested on: HDAC (Mouse Liver Extract); experiment: HDAC inhibition assay using Boc-Lys(Ac)-AMC substrate; format: biochemical; details: mouse liver enzyme
Summary of the method: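 Released AMC measured at 360 nm excitation, 460 nm emission after 15-30 min trypsin development at 37° C. Preceding deacetylation: mouse liver extract with acetylated-lysine AMC substrate, 30 min at 37° C after 5-min preincubation; blanks were buffer alone and substrate alone.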

[2] = tested on: Acetylated histone (H3); experiment: Histone (H3) acetylation, sandwich ELISA in HCT116 lysate; format: cell-based; details: HCT116, 4 hours
Description: (§1) Acetylated histone (H3), acetylated Tubulin and p21 levels were detected in cell lysate by sandwich ELISA method (Cell Signaling Technology, USA, Cat No: 7232, 7204 & 7167 respectively) by following manufacturer's instructions. Briefly, colon cancer cells (HCT116. 10,000/well) were incubated with test compound (1 and 10 μM) or medium (control) for 4 hours at 37° C. in CO2 incubator. The incubation lasted 18 hours for p21 induction. After incubation, cell lysates were prepared in cell lysis buffer by sonication on ice. The lysates were collected after centrifugation and subjected to ELISA test procedure. 100 μL of each diluted cell lysate in dilution buffer (1:1) was added to appropriate capture antibody coated microwells and incubated overnight at 4° C. After washing, 100 μL of detection antibody was added for 1 hour at 37° C. After second washing, 100 μL of HRP-linked secondary antibody was added for 30 min at 37° C. Finally, after appropriate washing, 100 μL of TMB substrate was added for 10 min at 37° C. followed by 100 μL of stop solution. The absorbance of individual wells was read using a spectrophotometer at 450 nm (A450).

[3] = target: recombinant HDAC1 enzyme (Homo sapiens (Human), UniProt Q13547); experiment: HDAC1 inhibitory activity (isoform selectivity); format: biochemical; details: read-out: HDAC1 inhibition (IC50)
Description: The assay was carried out, as previously described using recombinant HDAC1 enzyme (BIOMOL, USA) and following manufacturer's instructions.

[4] = tested on: U251 (glioma) cells; experiment: Anti-cancer screen (MTT), U251; format: cell-based; details: Homo sapiens, U-251, U251, 48 hours, MTT; for GI50: read-out: Cell growth inhibition U251 (Glioma) GI50; for LC50 (concentration giving 50% net cell kill relative to the time-zero cell count): read-out: Cell growth inhibition U251 (Glioma) LC50; for IC (TGI): read-out: Cell growth inhibition U251 (Glioma) TGI
Summary of the method: (§2)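 Five-point MTT cytotoxicity test with 48 h compound exposure (final 0.01–100 μM, triplicate) in DMEM with 10% FBS, using a T0 viability plate and SAHA as reference standard.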

[5] = tested on: NCIH460, HCT116 and U251 cells; experiment: Anti-cancer screen, mean GI50 over cell lines; format: cell-based; details: mean over cell lines; read-out: Cell growth inhibition Mean GI50
Summary of the method: as §2

[6] = tested on: HCT 116 (colon) cells; experiment: Anti-cancer screen (MTT), HCT 116; format: cell-based; details: Homo sapiens, HCT-116, HCT116, 48 hours, MTT; for GI50: read-out: Cell growth inhibition HCT116 (Colon) GI50; for CC50: read-out: Cell growth inhibition HCT116 (Colon) LC50; for IC (TGI): read-out: Cell growth inhibition HCT116 (Colon) TGI
Summary of the method: as §2

[7] = tested on: NCIH460 (lung) cells; experiment: Anti-cancer screen (MTT), NCIH460; format: cell-based; details: Homo sapiens, NCI-H460, NCIH460, 48 hours, MTT; for GI50: read-out: Cell growth inhibition NCIH460 (Lung) GI50; for LC50: read-out: Cell growth inhibition NCIH460 (Lung) LC50; for IC (TGI): read-out: Cell growth inhibition NCIH460 (Lung) TGI
Summary of the method: as §2

[8] = tested on: acetylated Tubulin; experiment: Tubulin acetylation, sandwich ELISA in HCT116 lysate; format: cell-based; details: HCT116, 4 hours
Description: as §1

[9] = tested on: p21; experiment: p21 induction, sandwich ELISA in HCT116 lysate; format: cell-based; details: HCT116, 18 hours
Description: as §1

recombinant HDAC1 enzyme, sequence (Q13547 whole entry, canonical isoform): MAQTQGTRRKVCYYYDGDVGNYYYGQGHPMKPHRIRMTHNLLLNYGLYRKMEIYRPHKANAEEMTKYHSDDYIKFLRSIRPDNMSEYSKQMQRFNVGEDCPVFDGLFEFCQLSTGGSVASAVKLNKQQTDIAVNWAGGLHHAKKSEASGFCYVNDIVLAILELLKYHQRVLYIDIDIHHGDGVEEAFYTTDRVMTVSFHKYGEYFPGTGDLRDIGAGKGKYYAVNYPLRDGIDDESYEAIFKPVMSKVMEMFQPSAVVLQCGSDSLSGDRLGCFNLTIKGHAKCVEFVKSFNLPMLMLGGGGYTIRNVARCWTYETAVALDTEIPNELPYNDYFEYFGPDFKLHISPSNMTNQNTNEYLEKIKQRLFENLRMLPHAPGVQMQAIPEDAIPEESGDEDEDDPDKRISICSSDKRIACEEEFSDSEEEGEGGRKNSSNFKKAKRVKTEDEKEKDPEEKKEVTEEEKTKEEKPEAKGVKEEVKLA

| SMILES | HDAC inhibition % (1 μM) [1] [%] | HDAC inhibition % (10 μM) [1] [%] | IC50 [1] [µM] | H3 acetylation (Fold increase) ([2]; 1 μM) | H3 acetylation (Fold increase) ([2]; 10 μM) | IC50 [3] [µM] | GI50 [4] [µM] | LC50 (concentration giving 50% net cell kill relative to the time-zero cell count) [4] [µM] | IC (TGI) [4] [µM] | GI50 [5] [µM] | GI50 [6] [µM] | CC50 [6] [µM] | IC (TGI) [6] [µM] | GI50 [7] [µM] | LC50 [7] [µM] | IC (TGI) [7] [µM] | Tubulin acetylation (Fold increase) ([8]; 1 μM) | Tubulin acetylation (Fold increase) ([8]; 10 μM) | P21 induction (Fold increase) ([9]; 1 μM) | P21 induction (Fold increase) ([9]; 10 μM) |
| --- | --- | --- | --- | --- | --- | --- | --- | --- | --- | --- | --- | --- | --- | --- | --- | --- | --- | --- | --- | --- |
| COc1ccc(/C=C(/C(=O)NCc2ccc(C(=O)Nc3ccccc3N)cc2)c2ccccc2F)cc1OC [Compound 28, N-(2-Aminophenyl)-4-((3-(3,4-dimethoxyphenyl)-2-(2-fluorophenyl)acrylamido)methyl)benzamide] | 41.3 | 65.6 | 9.5 | 1.1 | 5.6 | 0.036 | 5.5 | > 100 | > 100 | 2.2 | 0.1 | > 100 | > 100 | 1 | > 100 | > 100 | 1.9 | 6.2 | 1.5 | 2.5 |
| COc1ccc(/C=C(/C(=O)NCc2ccc(C(=O)Nc3ccccc3N)cc2)c2ccc(C)cc2)cc1OC [Compound 29, N-(2-Aminophenyl)-4-((3-(3,4-dimethoxyphenyl)-2-(4-methylphenyl)acrylamido)methyl)benzamide] | 34.2 | 52.8 | 34 |  |  | 0.057 | 11 | > 100 | 45 | 4.8 | 0.3 | > 100 | 40 | 3.1 | > 100 | > 100 |  |  |  |  |
| COc1ccc(/C=C(/C(=O)NCc2ccc(C(=O)Nc3ccccc3N)cc2)c2ccccc2)cc1OC [Compound 31, N-(2-Aminophenyl)-4-((3-(3,4-dimethoxyphenyl)-2-phenylacrylamido)methyl)benzamide] | 36.5 | 65.5 | 7.9 | 0.9 | 1.7 | 0.054 | 3.8 | > 100 | 50 | 1.6 | 0.02 | > 100 | 40 | 1.1 | > 100 | > 100 | 1.2 | 2.1 | 1.2 | 2.8 |
| COc1ccc(/C=C(/C(=O)NCc2ccc(C(=O)Nc3ccccc3N)cc2)c2cccc(F)c2)cc1OC [Compound 32, N-(2-Aminophenyl)-4-((3-(3,4-dimethoxyphenyl)-2-(3-fluorophenyl)acrylamido)methyl)benzamide] | 39.9 | 61.2 | 4.8 |  |  | 0.052 | 2.1 | > 100 | 48 | 1.3 |  | > 100 | 100 | 1.8 | > 100 | > 100 |  |  |  |  |
| CSc1ccc(/C=C(/C(=O)NCc2ccc(C(=O)NO)cc2)c2cccnc2)cc1 [Compound 55, 4-((2-(Pyridin-3-yl)-3-(4-methylthiophenyl)acrylamido)methyl)-N-hydroxybenzamide] | 85.7 | 95.1 | 0.02 | 4.2 | 7.7 |  | 0.2 | 56 | 0.4 | 0.8 | 1.1 | 48 | 6.2 | 1 | > 100 | 39 | 10.4 | 11 | 1.3 | 2.5 |
| O=C(CCCCCNC(=O)NC(=O)/C(=C/c1ccc(F)c(F)c1)c1ccc(F)cc1)NO [Compound 100] | 77.1 | 96.3 |  |  |  |  | 28 | 84 | 62 | 25.6 | 8.8 | 82 | 46 | 40 | 96 | 70 |  |  |  |  |
| O=C(CCCCCNC(=O)NC(=O)/C(=C/c1ccccc1)c1ccccc1)NO [Compound 101] | 89.5 | 97.1 | 0.07 |  |  |  | 7 | 76 | 35 | 6.6 | 2.9 | 13.2 | 7.6 | 10 | 82 | 45 |  |  |  |  |
